Results taken from US20040186129A1, “2-Aroylimidazole compounds for treating cancer” (priority 2001, published 2004).
Where two headings read alike, the source gives them in different places.

Key:
HL-60/TX1000 = assay: In vitro anti-cancer activity against multi-drug resistant cancer cells, MTS assay; assay type: cell-based; settings: Homo sapiens, HL60/TX1000
Method: (§1) The cell lines were maintained in RPMI1640(GIBCO) supplemented with 10% FCS, 100 units/ml penicillin, 100 ug/ml streptomycin, and 2 mM L-glutamine. The cells were split every third day and diluted to a concentration of 2×10^5 cells/ml one day before experiment. All experiments were performed on exponentially growing cell culture. Cell densities were 2.5×10^4 cells/ml in all experiment.
(§2) A stock solution of Compound (1) was prepared by dissolving the compound at a concentration of 1 mM in 100% DMSO. Final concentrations were obtained by diluting the stock solution directly into the tissue culture medium. Cells were incubated with varying concentrations of the compounds for 72 hours and the IC50 was determined by MTS (i.e. […]) assay. IC50 stands for the concentration of compound required to inhibit 50% tumor cell growth.
(§3) In vitro activity was determined in two MDR (Multi Drug Resistant) human cancer cell lines. HL-60/TX1000 was isolated in vitro by subculturing HL-60 in progressively higher concentration of Taxol. HL-60/TX1000 cells over-express mdr-1 mRNA and p-glycoprotein, as determined by western blot and immunofluorescence labeling with antiPGP antibodies. The cell is cross-resistant to Taxol, Vincristine, Adriamycin, Etoposide and Doxorubicin. MES-SA/Dx5 was established in the presence of increasing concentrations of Doxorubicin. […] MES-SA/Dx5 was purchased from ATCC.
(§4) The procedure for culturing the cells and assaying cancer cell growth inhibition were as described in Example 12.
(§5) The protocol described in Examples 12-13 was used to assay inhibition by Compound (2)-(12) on the growth of the multidrug resistant cancer cell line MES-SA/DX5 and HL-60/TX1000.

MES-SA/DX5 = assay: as above; assay type: cell-based; settings: Homo sapiens
Method: as §1, §2, §3, §4, §5

[1] = test system: human breast tumor (MDA435); assay: Tumor growth inhibition assay, human breast tumor (MDA435) xenograft model; assay type: in vivo, mouse
Method: (§6) The in vivo anti-cancer efficacy of Compound (2) was assessed in tumor bearing mice using a tumor growth inhibition assay. Human breast tumor (MDA-435) cells were implanted by injection of a tumor cell suspension subcutaneously in the flank of a nude mouse. Treatment of the tumor with an experimental compound began after the tumor had been established (volume was approximately 100 mm^3). The animal then began a multiple injection schedule where the compound was administered orally. Tumors were measured two times a week. During the course of this assay, animals were monitored daily for signs of toxicity including body weight loss.
A supplemented media was prepared from 50% DMEM/Dulbecco Modified Eagle Medium (High Glucose), 50% RPMI 1640, 10% FBS/Fetal Bovine Serum (Hybridoma Tested; Sterile Filtered), 1% L-Glutamine, 1% Penicillin-Streptomycin, 1% MEM Sodium Pyruvate, 1% MEM Non-Essential Amino Acids. […]
The flask was washed with 10 ml of sterile room temperature phosphate buffered saline (PBS). […] The supernatant was aspirated and the cell pellet was resuspended in 10 ml of supplemented media and the cells were counted. […]
The above procedure for trypsinizing and centrifuging the cells were followed. The supernatant was aspirated and the cell pellet was resuspended in 10 ml of sterile PBS and the cells were counted. […]

[2] = Body weight of treated tumor bearing mice (signs of toxicity); assay type: in vivo, mouse
Method: as §6
A dosing solution for compound administration was prepared by dissolving 1 gram of Compound (2) in 10 ml of acetone (HPLC grade), and sonicated for 5 minutes using 550 Sonic Dismembrator. 1.2 equivalents of 1 N HCl aqueous solution were added to the acetone solution which was then sonicated for 5 minutes. All solvent was then evaporated from the solution by using Speed Vac Plus SC 250 DDA over night. The dried powder was used for preparing the dosing solution of Compound (2). 1% Methyl cellulose (MC) vehicle was prepared by dissolving 1.0 gram of Methyl cellulose, 400 cps, U.S.P. (Spectrum Laboratory Products, Cat. # ME136) in 100 mL of H2O. This mixture was then stirred for 12 hours at room temperature to produce a clear 1% MC solution. […]

seven cancer cell lines = assay: In vitro anti-cancer activity, summary over seven cancer cell lines; assay type: cell-based; settings: range over the seven cell lines of Table 1; read-out: IC50 against seven cancer cell lines
Method: (§7) The in vitro activity of the compounds was determined in the following seven human cancer cell lines. MDA435 (human breast cancer), MIP10 (human colon cancer), HL-60 (human myeloid leukemia), U937 (human leukemia), p388 (murine leukemia), DU-145 (human prostate cancer), MES-SA (human uterine sarcoma) were obtained from ATCC (American Type of Culture Collection).
as §1, §2

A549 = assay: In vitro anti-cancer activity, MTS assay, 72 hours; assay type: cell-based; settings: Homo sapiens, A549, 72 hours
p388 = assay: In vitro anti-cancer activity, MTS assay, 72 hours; assay type: cell-based, murine; settings: Mus musculus, p388, 72 hours
Method: as §7, §1, §2

MDA-435 = assay: In vitro anti-cancer activity, MTS assay, 72 hours; assay type: cell-based; settings: Homo sapiens, MDA435, MDA-435, 72 hours
Method: as §7, §1, §2

H2 = assay: In vitro anti-cancer activity, MTS assay, 72 hours; assay type: cell-based; settings: Homo sapiens, H2, 72 hours
Method: as §7, §1, §2

DU-145 = assay: In vitro anti-cancer activity, MTS assay, 72 hours; assay type: cell-based; settings: Homo sapiens, DU-145, 72 hours
Method: as §7, §1, §2

MES-SA = assay: In vitro anti-cancer activity, MTS assay, 72 hours; assay type: cell-based; settings: Homo sapiens
Method: as §7, §1, §2

HL-60 = assay: In vitro anti-cancer activity, MTS assay, 72 hours; assay type: cell-based; settings: Homo sapiens, HL-60, 72 hours
Method: as §7, §1, §2

[3] = test system: MDR cell lines (MES-SA/DX5, HL-60/TX1000); assay: In vitro anti-cancer activity, summary over both MDR cell lines; assay type: cell-based, human
Method: as §1, §2
In vitro activity was determined in two MDR (Multi Drug Resistant) human cancer cell lines. HL-60/TX1000 was isolated in vitro by subculturing HL-60 in progressively higher concentration of Taxol. HL-60/TX1000 cells over-express mdr-1 mRNA and p-glycoprotein, as determined by western blot and immunofluorescence labeling with antiPGP antibodies. The cell is cross-resistant to Taxol, Vincristine, Adriamycin, Etoposide and Doxorubicin. […]

[4] = HL-60/TX1000, Table 3, read-out: IC50 (uM) HL-60/TX1000
[5] = MES-SA/DX5, Table 3, read-out: IC50 (uM) MES-SA/DX5
[6] = HL-60/TX1000, Table 2, read-out: IC50
[7] = MES-SA/Dx5, MES-SA/DX-5, Table 2, read-out: IC50

For `N#Cc1ccc(Cn2cc(C(=O)c3nc4cnccc4[nH]3)c3ccccc32)cc1` [Compound 2], the IC50 (HL-60/TX1000; [4]) was 0.05 µM, the IC50 (MES-SA/DX5; [5]) was 0.05 µM and the tumor growth inhibition ([1]; MDA435 in nude mice, 25 mg/kg orally, 3 times a week for 3 weeks) was “significantly inhibits tumor growth”. The “reduction of the volume of tumors” value ([1]; MDA435 tumors in nude mice, administered orally) was “greater than 50%”, the “change in body weight” value ([2]; mice treated with Compound (2)) was “Little or no change in body weight” and the loss of weight ([2]; nude mice, 25 mg/kg orally, 3 times a week for 3 weeks) was “less than 5%”.

`O=C(c1nc2cnccc2[nH]1)c1cn(Cc2ccc(Cl)c(Cl)c2)c2ccccc12` [Compound 3] gave an IC50 (HL-60/TX1000; [4]) of 0.04 µM and an IC50 (MES-SA/DX5; [5]) of 0.05 µM.

`Cc1ccc(Cn2cc(C(=O)c3nc4cnccc4[nH]3)c3ccccc32)cc1` [Compound 4] gave an IC50 (HL-60/TX1000; [4]) of 0.05 µM and an IC50 (MES-SA/DX5; [5]) of 0.05 µM.

In the case of `Cc1cccc2c(C(=O)c3nc4ccncc4[nH]3)cn(Cc3ccc(Cl)cc3)c12` [Compound 5], the IC50 (HL-60/TX1000; [4]) is reported as 0.1 µM and the IC50 (MES-SA/DX5; [5]) is reported as 0.5 µM.

For `O=C(c1nc2ccncc2[nH]1)c1cn(Cc2ccc(Cl)cc2)c2cc(F)ccc12` [Compound 6], the IC50 (HL-60/TX1000; [4]) was 0.05 µM and the IC50 (MES-SA/DX5; [5]) was 0.05 µM.

Compound `O=C(c1nc2ccncc2[nH]1)c1cc(Cc2ccc(Cl)cc2)n2ccccc12` [Compound 7] has an IC50 (HL-60/TX1000; [4]) of 0.05 µM and an IC50 (MES-SA/DX5; [5]) of 0.5 µM.

Work on `COC(=O)c1cnc(C(=O)c2cn(Cc3ccc(Cl)cc3)c3ccccc23)[nH]1` [Compound 8, 2-[1-(4-chloro-benzyl)-1H-indole-3-carbonyl]-3H-imidazole-4-carboxylic acid methyl ester] yielded an IC50 (HL-60/TX1000; [4]) of 0.05 µM and an IC50 (MES-SA/DX5; [5]) of 0.1 µM.

For `O=C(c1nc(-c2ccccn2)c[nH]1)c1cn(Cc2ccc(Cl)cc2)c2ccccc12` [Compound 9, [1-(4-Chloro-benzyl)-1H-indol-3-yl]-(4-pyridin-2-yl-1H-imidazol-2-yl)-methanone], the IC50 (HL-60/TX1000; [4]) was 0.5 µM and the IC50 (MES-SA/DX5; [5]) was 0.5 µM.

For `O=C(c1cccnc1)c1c[nH]c(C(=O)c2cn(Cc3ccc(Cl)cc3)c3ccccc23)n1` [Compound 10, [1-(4-Chlorobenzyl)-1H-indol-3-yl]-[4-(pyridine-3-carbonyl)-1H-imidazol-2-yl]methanone], the IC50 (HL-60/TX1000; [4]) was 0.5 µM and the IC50 (MES-SA/DX5; [5]) was 0.5 µM.

In the case of `CCC(=O)c1c[nH]c(C(=O)c2cn(Cc3ccc(Cl)cc3)c3ccccc23)n1` [Compound 11], the IC50 (HL-60/TX1000; [4]) is reported as 0.5 µM and the IC50 (MES-SA/DX5; [5]) is reported as 0.5 µM.

Work on `CC1(C)COC(c2cnc(C(=O)c3cn(Cc4ccc(Cl)cc4)c4ccccc34)[nH]2)=N1` [Compound 12, [1-(4-chlorobenzyl)-1H-indol-3-yl]-[5-(4,4-dimethyl-4,5-dihydro-oxazol-2-yl)-1H-imidazo 1-2-yl]-methanone] yielded an IC50 (HL-60/TX1000; [4]) of 0.5 µM and an IC50 (MES-SA/DX5; [5]) of 0.5 µM.

With `O=C(c1nc2cnccc2[nH]1)c1cn(Cc2ccc(Cl)cc2)c2ccccc12` [Compound (1)] the IC50 (seven cancer cell lines) was 10 to 50 nM, the IC50 (A549) was 50 nM and the IC50 (p388) was 50 nM. For the same compound, the IC50 (MDA-435) was 50 nM, the IC50 (H2) was 50 nM and the IC50 (DU-145) was 50 nM. The IC50 (MES-SA) was 10 nM, the IC50 (HL-60) was 50 nM and the IC50 (HL-60/TX1000; [6]) was 0.05 µM. The IC50 (MES-SA/DX5; [7]) was 0.05 µM and the “anti-cancer activity against MDR cancer cell lines” value ([3]; MES-SA/DX5 and HL-60/TX1000, in words) was “high anti-cancer activity”.

`CC(=O)O[C@H]1C(=O)[C@@]2(C)[C@H]([C@H](OC(=O)c3ccccc3)[C@]3(O)C[C@H](OC(=O)[C@H](O)[C@@H](NC(=O)c4ccccc4)c4ccccc4)C(C)=C1C3(C)C)[C@]1(OC(C)=O)CO[C@@H]1C[C@@H]2O` [Taxol, reference compound] gave an IC50 (HL-60/TX1000; [6]) of 5 µM and an IC50 (MES-SA/DX5; [7]) of 5 µM.

For `CC[C@]1(O)C[C@H]2CN(CCc3c([nH]c4ccccc34)[C@@](C(=O)OC)(c3cc4c(cc3OC)N(C=O)[C@H]3[C@@](O)(C(=O)OC)[C@H](OC(C)=O)[C@]5(CC)C=CCN6CC[C@]43[C@@H]65)C2)C1` [Vincristine, reference compound], the IC50 (HL-60/TX1000; [6]) was 5 µM, the IC50 (MES-SA/DX5; [7]) was 1 µM and the IC50 ([3]; Homo sapiens, MES-SA/DX5 and HL-60/TX1000, text summary of Tables 2 and 3, read-out: IC50 against the MDR cell lines) was 1000 to 5000 nM.
